Consider three substances from patent publication US20110111016A1, “NON-DNA BASE-CONTAINING POLYNUCLEOTIDE COMPOSITIONS AND THEIR USE FOR THE MODULATION OF IMMUNE RESPONSES” (priority 2009, published 2011).

What all share (type): cell-based
One data set concerns the target T1, human TLR2 (Homo sapiens, UniProt O60603).
T1 construct: host or cells: HEK293
Briefly: NF-κB activation (secreted alkaline phosphatase reporter) in HEK293 cells expressing human TLR2. The following applies: HEK293/hTLR2 cell line; polynucleotide final concentration 10 μg/mL; 16-20 hours. Here is the method: (§1) Toll-like receptors (TLR) are known to interact with a number of natural and synthetic molecules that can function as immune adjuvants. Examples of these molecules are Poly (I:C) polynucleotides, lipopolysaccharide and CpG-containing polynucleotides. The interaction of non-DNA base-containing polynucleotides (SEQ ID NOs: 1-3) to interact with TLR and induce down-stream signaling was tested by assessing NF-κB activation in HEK293 cells expressing human TLR2, 3, 4, 5, 7, 8 and 9. TLR engagement was determined by measurement of secreted alkaline phosphatase, under the control of a reporter inducible by NF-κB. Appropriate positive controls were used for each TLR. The non-DNA base-containing polynucleotides were dissolved in sterile water at a concentration of 100 μg/mL, and used at a final concentration of 10 μg/mL. HEK293 cells containing the appropriate TLR and NF-κB reporting system (InvivoGen, San Diego, Calif., USA) were placed in wells of 96 well plates (25,000-50,000 cells, in a final volume of 200 μL medium designed for the detection of NF-κB induced secreted alkaline phosphatase expression), and incubated with non-DNA base-containing polynucleotides or positive controls for 16-20 hours. TLR activating activity was determined by measurement of absorbance at 650 nm wavelength using a Coulter AD340C absorbance detector. The results shown are expressed as Optical Density (OD).

The target in the next data set is T2, human TLR4 (Homo sapiens, UniProt O00206+Q9Y6Y9).
T2 construct: host or cells: HEK293
T2 sequence (Q9Y6Y9 17-160): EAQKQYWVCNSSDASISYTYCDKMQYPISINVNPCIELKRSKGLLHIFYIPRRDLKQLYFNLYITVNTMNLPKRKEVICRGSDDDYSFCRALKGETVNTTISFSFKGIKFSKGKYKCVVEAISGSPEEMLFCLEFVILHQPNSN
T2 sequence (O00206 24-839): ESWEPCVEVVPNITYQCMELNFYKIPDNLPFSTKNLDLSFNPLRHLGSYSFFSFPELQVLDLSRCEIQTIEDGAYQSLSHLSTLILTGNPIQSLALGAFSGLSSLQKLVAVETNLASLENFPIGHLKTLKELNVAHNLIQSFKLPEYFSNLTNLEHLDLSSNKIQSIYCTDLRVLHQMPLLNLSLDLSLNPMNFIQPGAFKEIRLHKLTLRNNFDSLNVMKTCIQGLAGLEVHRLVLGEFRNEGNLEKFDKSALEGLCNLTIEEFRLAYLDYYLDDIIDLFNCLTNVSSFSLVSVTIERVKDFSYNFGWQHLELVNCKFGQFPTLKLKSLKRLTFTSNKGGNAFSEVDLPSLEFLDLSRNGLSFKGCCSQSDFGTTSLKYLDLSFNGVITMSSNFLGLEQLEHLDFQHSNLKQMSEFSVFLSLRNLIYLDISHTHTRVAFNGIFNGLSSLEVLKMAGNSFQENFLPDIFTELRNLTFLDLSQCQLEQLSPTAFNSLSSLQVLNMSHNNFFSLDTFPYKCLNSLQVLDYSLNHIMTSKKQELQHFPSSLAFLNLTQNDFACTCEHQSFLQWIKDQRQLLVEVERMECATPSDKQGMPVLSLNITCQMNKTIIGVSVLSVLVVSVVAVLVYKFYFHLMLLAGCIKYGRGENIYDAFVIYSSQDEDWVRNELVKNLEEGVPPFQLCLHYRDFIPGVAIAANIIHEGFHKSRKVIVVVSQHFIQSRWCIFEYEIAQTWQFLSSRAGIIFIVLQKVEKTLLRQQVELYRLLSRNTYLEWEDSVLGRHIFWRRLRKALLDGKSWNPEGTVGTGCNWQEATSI
Briefly: NF-κB activation (secreted alkaline phosphatase reporter) in HEK293 cells expressing human TLR4. The following applies: HEK293/hTLR4 cell line; polynucleotide final concentration 10 μg/mL; 16-20 hours. Here is the method: as §1

The next data set concerns the target T3, human TLR8 (Homo sapiens, UniProt Q9NR97).
T3 construct: host or cells: HEK293
T3 sequence (Q9NR97 27-1041): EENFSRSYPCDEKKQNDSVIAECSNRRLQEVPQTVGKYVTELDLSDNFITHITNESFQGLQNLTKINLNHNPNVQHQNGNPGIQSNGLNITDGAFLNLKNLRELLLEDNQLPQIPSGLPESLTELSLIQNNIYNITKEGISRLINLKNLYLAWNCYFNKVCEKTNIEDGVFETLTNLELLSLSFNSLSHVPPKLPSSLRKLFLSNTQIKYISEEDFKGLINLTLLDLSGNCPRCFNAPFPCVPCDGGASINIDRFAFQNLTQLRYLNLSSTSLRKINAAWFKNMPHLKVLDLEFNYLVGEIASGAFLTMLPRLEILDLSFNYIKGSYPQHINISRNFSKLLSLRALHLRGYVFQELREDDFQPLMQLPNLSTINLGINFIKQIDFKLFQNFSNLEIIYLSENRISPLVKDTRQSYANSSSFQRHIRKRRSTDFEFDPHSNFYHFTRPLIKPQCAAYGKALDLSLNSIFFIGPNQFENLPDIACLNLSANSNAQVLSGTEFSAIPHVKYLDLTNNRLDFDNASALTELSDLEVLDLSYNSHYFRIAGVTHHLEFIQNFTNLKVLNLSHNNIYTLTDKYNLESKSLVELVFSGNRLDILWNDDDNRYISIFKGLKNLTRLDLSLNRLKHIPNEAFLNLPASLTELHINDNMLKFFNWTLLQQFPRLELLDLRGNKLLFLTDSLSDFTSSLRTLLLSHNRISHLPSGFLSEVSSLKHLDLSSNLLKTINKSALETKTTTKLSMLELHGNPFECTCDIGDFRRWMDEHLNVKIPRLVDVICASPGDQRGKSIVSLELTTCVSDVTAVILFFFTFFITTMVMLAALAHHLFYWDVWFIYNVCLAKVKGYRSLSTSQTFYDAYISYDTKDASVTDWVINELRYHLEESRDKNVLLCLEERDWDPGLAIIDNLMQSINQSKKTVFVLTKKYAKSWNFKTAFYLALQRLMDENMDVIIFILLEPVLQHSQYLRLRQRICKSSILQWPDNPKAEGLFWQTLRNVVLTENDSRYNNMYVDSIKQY
Briefly: NF-κB activation (secreted alkaline phosphatase reporter) in HEK293 cells expressing human TLR8. Conditions: HEK293/hTLR8 cell line; polynucleotide final concentration 10 μg/mL; 16-20 hours. How it is done: as §1, with “The interaction of non-DNA base-containing polynucleotides (SEQ ID NOs: 1-3) to interact with TLR and induce down-stream signaling was tested by assessing NF-κB activation in HEK293 cells expressing human TLR2, 3, 4, 5, 7, 8 and 9.” left out

A further data set deals with NF-κB control cells. The data set is described as follows: NF-κB reporter control cells (secreted alkaline phosphatase). The following applies: polynucleotide final concentration 10 μg/mL, 16-20 hours. How it is done:
as §1

T1 sequence (O60603 21-784): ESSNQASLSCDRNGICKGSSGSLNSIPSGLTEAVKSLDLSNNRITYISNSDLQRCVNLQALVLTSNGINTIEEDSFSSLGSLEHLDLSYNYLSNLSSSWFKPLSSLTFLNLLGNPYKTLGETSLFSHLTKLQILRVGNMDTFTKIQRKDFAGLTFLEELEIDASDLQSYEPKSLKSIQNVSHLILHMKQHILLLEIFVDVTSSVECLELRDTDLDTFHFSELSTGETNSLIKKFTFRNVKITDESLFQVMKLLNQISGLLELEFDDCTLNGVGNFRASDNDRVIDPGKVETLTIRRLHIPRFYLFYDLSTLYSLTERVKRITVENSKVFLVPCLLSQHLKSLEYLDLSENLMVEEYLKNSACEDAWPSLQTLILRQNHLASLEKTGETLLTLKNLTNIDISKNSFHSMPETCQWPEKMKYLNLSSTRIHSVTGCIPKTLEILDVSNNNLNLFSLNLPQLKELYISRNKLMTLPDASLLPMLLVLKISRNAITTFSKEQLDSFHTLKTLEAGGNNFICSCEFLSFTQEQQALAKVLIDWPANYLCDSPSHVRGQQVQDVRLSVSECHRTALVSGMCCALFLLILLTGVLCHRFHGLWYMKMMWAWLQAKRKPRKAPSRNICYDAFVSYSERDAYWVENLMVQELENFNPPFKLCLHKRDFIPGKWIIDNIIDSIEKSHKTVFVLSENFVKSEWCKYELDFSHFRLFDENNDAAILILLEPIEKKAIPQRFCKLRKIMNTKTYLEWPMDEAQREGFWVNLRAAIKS

Turning to UUGTUU [SEQ ID NO: 2], at human TLR2, the “TLR activation, Optical Density at 650 nm, hTLR2” value turned out to be 0.095. Besides, the “TLR activation, Optical Density at 650 nm, hTLR4” value at human TLR4 is recorded as 0.052. Moreover, the “TLR activation, Optical Density at 650 nm, hTLR8” value at human TLR8 came to 0.120. In the data set on NF-κB control cells, the “Optical Density at 650 nm, NF-κB control cells” value amounted to 0.076.
For “NebGGTGNeb (DNA NGGTGN; Nebularine at both ends, sugar and linkages not given here, further chemistry not given here) [SEQ ID NO: 1, 5′-OH, 3′-OH non-DNA base-containing polynucleotide]” the same measures were 0.093, 0.050, 0.118 and 0.078.
In the case of IIGTII [SEQ ID NO: 3], the “TLR activation, Optical Density at 650 nm, hTLR2” value at human TLR2 is recorded as 0.095. Besides, the “TLR activation, Optical Density at 650 nm, hTLR4” value on human TLR4 is on record as 0.050. Further, at human TLR8, the “TLR activation, Optical Density at 650 nm, hTLR8” value is reported as 0.128. For the same substance, the “Optical Density at 650 nm, NF-κB control cells” value in the data set with NF-κB control cells turned out to be 0.074.
